In paper PMC12543283, “TastepepAI: An artificial intelligence platform for taste peptide de novo design” (PLOS Computational Biology, 2025):
Ends that are not written are not given here.

Assays:
[1] = tested on: human umbilical vein endothelial cells (HUVEC)
[2] = tested on: human bronchial epithelial cells (BEAS-2B)
[3] = tested on: human pancreatic ductal epithelial cells (HPNE)
[4] = Electronic tongue analysis (Taste-Sensing System SA 402B); set-up: unit not given here; settings: reference solution 30 mM KCl + 0.3 mM tartaric acid as baseline, first measurement excluded; for Umami: sensor AAE; for Umami / Bitter / Sweet: detection threshold 0, room temperature; for Umami / Bitter / Sour / Salty: four replicates; for Sour: detection threshold -13, room temperature; for Salty: detection threshold -6, room temperature; for Sweet: measured five times
Procedure, shortened: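 Room-temperature electronic-tongue readings with five taste probes, calibrated against a reference of 30 mM KCl and 0.3 mM tartaric acid. Samples at 0.1 mg/mL and 1.0 mg/mL were measured four times, sweetness five times, and the first run was dropped. Detection cut-offs were sour −13, salty −6, others 0.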

[5] = tested on: human embryonic kidney cells (HEK293T)
Method: The cytotoxicity of 73 synthetic peptides was evaluated using four human cell lines: human pancreatic ductal epithelial cells (HPNE), human embryonic kidney cells (HEK293T), human umbilical vein endothelial cells (HUVEC), and human bronchial epithelial cells (BEAS-2B). When cell density reached 70% confluence, the complete culture medium was replaced with serum-free maintenance medium, and peptides were added at a final concentration of 100 μM for 36 h. Control groups received only serum-free maintenance medium without peptides. Cell proliferation was assessed using the CCK-8 assay kit (Solarbio, CA1210) according to the manufacturer’s instructions.

Substance	Average cell viability, HUVEC [1]	Cell viability, HUVEC, Data1 [1]	Cell viability, HUVEC, Data2 [1]	Cell viability, HUVEC, Data3 [1]	Average cell viability, BEAS-2B [2]	Cell viability, BEAS-2B, Data1 [2]	Cell viability, BEAS-2B, Data2 [2]	Cell viability, BEAS-2B, Data3 [2]	Average cell viability, HPNE [3]	Cell viability, HPNE, Data1 [3]	Cell viability, HPNE, Data2 [3]	Cell viability, HPNE, Data3 [3]	Umami ([4]; peptide 0.1 mg/mL)	Umami ([4]; peptide 1 mg/mL)	Bitter ([4]; sensor C00, peptide 0.1 mg/mL)	Bitter ([4]; sensor C00, peptide 1 mg/mL)	Sour ([4]; sensor CA0, peptide 0.1 mg/mL)	Sour ([4]; sensor CA0, peptide 1 mg/mL)	Salty ([4]; sensor CT0, peptide 0.1 mg/mL)	Salty ([4]; sensor CT0, peptide 1 mg/mL)	further results
SLEYLP [TaPep35]	100.35	100.75	100.03	100.27	109.54	106.58	102.99	119.04	109.88	105.12	118.20	106.32	1.93	-4.82	7.64	2.77	-3.84	12.93	-20.10	10.87	Sweet ([4]; sensor GL1, peptide 0.1 mg/mL): 8.65; Sweet ([4]; sensor GL1, peptide 1 mg/mL): -7.23; Average cell viability, HEK293T [5]: 98.64; Cell viability, HEK293T, Data1 [5]: 104.29; Cell viability, HEK293T, Data2 [5]: 94.35; Cell viability, HEK293T, Data3 [5]: 97.29
FEGDQDA [TaPep18]	104.36	97.71	114.64	100.75	104.49	109.67	103.49	100.30	102.53	116.21	89.05	102.33	1.84	-5.33	6.92	3.77	-3.88	13.35	-22.88	7.99	Sweet ([4]; sensor GL1, peptide 0.1 mg/mL): 5.97; Sweet ([4]; sensor GL1, peptide 1 mg/mL): -5.91; Average cell viability, HEK293T [5]: 103.66; Cell viability, HEK293T, Data1 [5]: 104.57; Cell viability, HEK293T, Data2 [5]: 105.99; Cell viability, HEK293T, Data3 [5]: 100.41
DAAEK [TaPep2]	95.40	97.15	96.19	92.84	107.18	116.05	111.86	93.62	105.52	116.01	111.51	89.05	1.21	-4.05	7.88	2.74	-2.30	12.60	-19.03	13.52	Sweet ([4]; sensor GL1, peptide 0.1 mg/mL): 6.09; Sweet ([4]; sensor GL1, peptide 1 mg/mL): -5.50; Average cell viability, HEK293T [5]: 92.18; Cell viability, HEK293T, Data1 [5]: 95.02; Cell viability, HEK293T, Data2 [5]: 84.13; Cell viability, HEK293T, Data3 [5]: 97.38
LGDDLVK [TaPep19]	102.69	92.52	103.78	111.76	111.70	111.27	110.77	113.06	100.07	102.93	114.51	82.76	2.00	-4.34	7.19	3.19	-4.23	10.91	-21.50	8.70	Sweet ([4]; sensor GL1, peptide 0.1 mg/mL): 6.20; Sweet ([4]; sensor GL1, peptide 1 mg/mL): -4.08; Average cell viability, HEK293T [5]: 106.88; Cell viability, HEK293T, Data1 [5]: 110.63; Cell viability, HEK293T, Data2 [5]: 106.37; Cell viability, HEK293T, Data3 [5]: 103.63
TDPELV [TaPep60]	102.29	91.72	106.41	108.73	110.77	105.88	117.95	108.47	111.81	114.61	113.81	107.02	1.33	-5.30	7.64	3.00	-2.65	12.51	-20.71	9.00	Sweet ([4]; sensor GL1, peptide 0.1 mg/mL): 5.70; Sweet ([4]; sensor GL1, peptide 1 mg/mL): -9.69; Average cell viability, HEK293T [5]: 103.06; Cell viability, HEK293T, Data1 [5]: 105.62; Cell viability, HEK293T, Data2 [5]: 98.99; Cell viability, HEK293T, Data3 [5]: 104.57
AEDNSL [TaPep43]	103.73	104.42	115.43	91.33	108.94	119.14	93.72	113.96	110.25	117.40	99.83	113.51	1.07	-5.11	7.83	4.00	-1.87	12.46	-20.35	7.60	Sweet ([4]; sensor GL1, peptide 0.1 mg/mL): 5.59; Sweet ([4]; sensor GL1, peptide 1 mg/mL): -3.45; Average cell viability, HEK293T [5]: 98.86; Cell viability, HEK293T, Data1 [5]: 96.72; Cell viability, HEK293T, Data2 [5]: 102.11; Cell viability, HEK293T, Data3 [5]: 97.76
